≈ marks a conversion by molar mass, not a printed value. Read-outs that look alike come from different tables or passages of the source.
Tested on: S. aureus
Assay: MIC (microbroth dilution)
Assay type: cell-based, Staphylococcus aureus
Settings: for MIC: read-out: MIC
In short: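 Overnight stationary-phase cultures back-diluted and tested by broth microdilution with 2-fold compound series. MIC is lowest concentration with no visible growth, with OD600 also read. Separate runs included polymyxin B nonapeptide at 30 μg/mL final as outer-membrane permeabilizer.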

Cc1cc(C)nc(N[C@@H]2CCN(c3c(F)cc4c(=O)c(C(=O)O)cn5c4c3OC[C@@H]5C)C2)n1 [Compound 50, (S)-10-((R)-3-((4,6-Dimethylpyrimidin-2-yl)amino)pyrrolidin-1-yl)-9-fluoro-3-methyl-7-oxo-2,3-dihydro-7H-[1,4]oxazino[2,3,4-ij]quinoline-6-carboxylic acid]
fold improvement in activity compared to 46: 2–8 fold | fold difference in MIC, SA-1199B vs SA-1199 (NorA-overexpressing vs WT): no difference | MIC (Staphylococcus aureus, 1199, + 4% albumin): 0.06 µg/mL | MIC (Staphylococcus aureus, 1199b, + 4% albumin): 0.125 µg/mL | MIC (Staphylococcus aureus, ATCC6538P, ATCC 6538P): 0.03 µg/mL (≈ 0.0662 µM) | MIC (Staphylococcus aureus, ATCC9144, ATCC 9144, + 4% albumin): 0.125 µg/mL | MIC (Staphylococcus aureus, ATCC9144, ATCC 9144): ≤ 0.004 µg/mL | MIC (Staphylococcus aureus, ATCC10390, ATCC 10390): 0.03 µg/mL (≈ 0.0662 µM) | MIC (Staphylococcus aureus, ATCC13709, ATCC 13709): 0.03 µg/mL (≈ 0.0662 µM) | MIC (Staphylococcus aureus, ATCC19636, Smith, ATCC 19636): 0.03 µg/mL (≈ 0.0662 µM) | MIC (Staphylococcus aureus, ATCC27660, ATCC 27660): 0.03 µg/mL (≈ 0.0662 µM) | MIC (Staphylococcus aureus, ATCC29213, ATCC 29213 + 50% serum): 1 µg/mL | MIC (Staphylococcus aureus, ATCC29213, ATCC 29213): 0.03 µg/mL (≈ 0.0662 µM) | MIC (Staphylococcus aureus, ATCC 33591 / MRSA, MRSA (ATCC 33591)): 0.03 µg/mL (≈ 0.0662 µM) | MIC (Staphylococcus aureus, ATCC 33592 / MRSA, MRSA (ATCC 33592)): 0.03 µg/mL (≈ 0.0662 µM) | MIC (Staphylococcus aureus, ATCC33594, ATCC 33594): 0.03 µg/mL (≈ 0.0662 µM) | MIC (Staphylococcus aureus, ATCC49230, ATCC 49230): 0.03 µg/mL (≈ 0.0662 µM) | MIC (Staphylococcus aureus, MRSA / NRS 17 / VISA, VISA MRSA (NRS17)): 1 µg/mL (≈ 2.21 µM) | MIC (Staphylococcus aureus, MRSA / NRS 22 / USA600, USA600 MRSA GISA (NRS22)): 4 µg/mL (≈ 8.82 µM) | MIC (Staphylococcus aureus, MRSA / NRS 71, MRSA (NRS71)): 1 µg/mL (≈ 2.21 µM) | MIC (Staphylococcus aureus, MRSA / NRS 100, MRSA (COL; NRS100)): 0.03 µg/mL (≈ 0.0662 µM) | MIC (Staphylococcus aureus, MRSA / NRS 119, MRSA Linezolid-R (NRS119)): 1 µg/mL (≈ 2.21 µM) | MIC (Staphylococcus aureus, MRSA / NRS 123 / USA400, USA400 MRSA (NRS123)): 0.03 µg/mL (≈ 0.0662 µM) | MIC (Staphylococcus aureus, MRSA / NRS 127, LZD-NS MRSA (NRS127)): 4 µg/mL (≈ 8.82 µM) | MIC (Staphylococcus aureus, MRSA / NRS 269, TGC-NS MRSA (NRS269)): 2 µg/mL (≈ 4.41 µM) | MIC (Staphylococcus aureus, MRSA / NRS 271, Linezolid-R MRSA (NRS271)): 0.5 µg/mL (≈ 1.1 µM) | MIC (Staphylococcus aureus, MRSA / NRS 382 / USA100, USA100 MRSA (NRS382)): 0.5 µg/mL (≈ 1.1 µM) | MIC (Staphylococcus aureus, MRSA / NRS 383 / USA200, USA200 MRSA (NRS383)): 1 µg/mL (≈ 2.21 µM) | MIC (Staphylococcus aureus, MRSA / NRS 384 / USA300, USA300 MRSA (NRS384)): 0.03 µg/mL (≈ 0.0662 µM) | MIC (Staphylococcus aureus, MRSA / NRS 385 / USA500, USA500 MRSA (NRS385)): 0.5 µg/mL (≈ 1.1 µM) | MIC (Staphylococcus aureus, MRSA / NRS 386 / USA700, USA700 MRSA (NRS386)): 0.25 µg/mL (≈ 0.551 µM) | MIC (Staphylococcus aureus, MRSA / NRS 387 / USA800, USA800 MRSA (NRS387)): 0.03 µg/mL (≈ 0.0662 µM) | MIC (Staphylococcus aureus, MRSA / NRS 402 / VISA, VISA DAP-NS MRSA (NRS402)): 1 µg/mL (≈ 2.21 µM) | MIC (Staphylococcus aureus, MRSA / NRS 483, USA1000 MRSA (NRS483)): 0.03 µg/mL (≈ 0.0662 µM) | MIC (Staphylococcus aureus, MRSA / NRS 484, USA1100 MRSA (NRS484)): 0.03 µg/mL (≈ 0.0662 µM) | MIC (Staphylococcus aureus, MRSA / USA300, USA300 MRSA (FPR3757)): 0.5 µg/mL (≈ 1.1 µM) | MIC (Staphylococcus aureus, MRSA / USA300, USA300 MRSA (TCH1516)): 0.03 µg/mL (≈ 0.0662 µM) | MIC (Staphylococcus aureus, MRSA / USA400, USA400 MRSA (MW2)): 0.03 µg/mL (≈ 0.0662 µM) | MIC (Staphylococcus aureus, MRSA / VISA, MRSA VISA (CDC #0219)): 4 µg/mL (≈ 8.82 µM) | MIC (Staphylococcus aureus, MRSA / VISA, MRSA VISA (CDC #0220)): 1 µg/mL (≈ 2.21 µM) | MIC (Staphylococcus aureus, MRSA / VISA, MRSA VISA (CDC #0221)): 0.5 µg/mL (≈ 1.1 µM) | MIC (Staphylococcus aureus, MRSA / VISA, MRSA VISA (CDC #0223)): 1 µg/mL (≈ 2.21 µM) | MIC (Staphylococcus aureus, MRSA / VISA, MRSA VISA (CDC #0225)): 1 µg/mL (≈ 2.21 µM) | MIC (Staphylococcus aureus, MRSA / VISA, MRSA VISA (CDC #0226)): 0.03 µg/mL (≈ 0.0662 µM) | MIC (Staphylococcus aureus, MRSA / VISA, MRSA VISA (CDC #0227)): 1 µg/mL (≈ 2.21 µM) | MIC (Staphylococcus aureus, MRSA / VISA, MRSA VISA (CDC AR-BANK #0215)): 16 µg/mL (≈ 35.3 µM)
